Measured values taken from ChEMBL document CHEMBL3885861, “Open TG-GATES”.

Species: Rattus norvegicus
Experiment: Open TG-GATES - Regimen: Single
Type: toxicity, organism-based, Sprague-Dawley
Design: regimen Single, gender Male, age 6 weeks
Settings: in vivo, po, route gavage; for A/G / ALP / ALT / AST / BUN / CRE / Ca / Cl / DBIL / GLC / IP / K / LDH / Na / PL / RALB / TBIL / TC / TG / TP / gamma-GTP: tissue Plasma; for APTT / Bas / Eos / Fbg / Hb / Ht / Lym / MCH / MCHC / MCV / Mono / Neu / PT / Plat / RBC / Ret / WBC: tissue Blood; for KIDNEY_L / KIDNEY_R / KIDNEY_TOTAL: tissue Kidney; for LIVER: tissue Liver
[1] = 30 mg/kg, 9 h, dose level Middle
[2] = 30 mg/kg, 24 h, dose level Middle
[3] = 100 mg/kg, 3 h, dose level High

SMILES: O=C1CN(/N=C/c2ccc([N+](=O)[O-])o2)C(=O)N1 [NITROFURANTOIN]
- A/G [1]: 1.6
- ALP [1]: 825.2 IU/L
- ALT [1]: 33.2 IU/L
- AST [1]: 62 IU/L
- BUN [1]: 10.4 mg/dL
- CRE [1]: 0.3 mg/dL
- Ca [1]: 10.4 mg/dL
- Cl [1]: 101.8 meq/L
- DBIL [1]: 0.072 mg/dL
- GLC [1]: 199 mg/dL
- IP [1]: 9.7 mg/dL
- K [1]: 3.8 meq/L
- LDH [1]: 197.6 IU/L
- Na [1]: 139.6 meq/L
- PL [1]: 130.2 mg/dL
- RALB [1]: 3.3 g/dL
- TBIL [1]: 0.1 mg/dL
- TC [1]: 67.4 mg/dL
- TG [1]: 57.4 mg/dL
- TP [1]: 5.4 g/dL
- gamma-GTP [1]: 0.4 IU/L
- TERMINAL_BW [2]: 231.7 g
- APTT [2]: 18.6 s
- Bas [2]: 0%
- Eos [2]: 1%
- Fbg [2]: 219.2 mg/dL
- Hb [2]: 13.3 g/dL
- Ht [2]: 37.8%
- Lym [2]: 77.8%
- MCH [2]: 21.9 pg
- MCHC [2]: 35.1%
- MCV [2]: 62.4 fL
- Mono [2]: 2.4%
- Neu [2]: 17.4%
- PT [2]: 12.7 s
- Plat [2]: 115.4 x10_4/uL
- RBC [2]: 604.6 x10_4/ul
- Ret [2]: 7.1%
- WBC [2]: 92 x10_2/uL
- KIDNEY_L [2]: 1.1 g
- KIDNEY_R [2]: 1.1 g
- KIDNEY_TOTAL [2]: 2.1 g
- LIVER [2]: 11.1 g
- A/G [2]: 1.6
- ALP [2]: 1093.6 IU/L
- ALT [2]: 39 IU/L
- AST [2]: 67.8 IU/L
- BUN [2]: 13.6 mg/dL
- CRE [2]: 0.4 mg/dL
- Ca [2]: 10.7 mg/dL
- Cl [2]: 102.2 meq/L
- DBIL [2]: 0.1 mg/dL
- GLC [2]: 211.8 mg/dL
- IP [2]: 7.6 mg/dL
- K [2]: 4.1 meq/L
- LDH [2]: 176 IU/L
- Na [2]: 139.8 meq/L
- PL [2]: 140.8 mg/dL
- RALB [2]: 3.3 g/dL
- TBIL [2]: 0.2 mg/dL
- TC [2]: 69.4 mg/dL
- TG [2]: 115 mg/dL
- TP [2]: 5.4 g/dL
- gamma-GTP [2]: 1 IU/L
- TERMINAL_BW [3]: 220.5 g
- TERMINAL_BW (100 mg/kg, 3 h, dose level Low): 205.8 g
- APTT [3]: 19.6 s
- Bas [3]: 0%
- Eos [3]: 1%
- Fbg [3]: 215.6 mg/dL
- Hb [3]: 13.1 g/dL
- Ht [3]: 37.2%
- Lym [3]: 78.6%
- MCH [3]: 21.8 pg
- MCHC [3]: 35.1%
- MCV [3]: 62.1 fL
- Mono [3]: 2.6%
- Neu [3]: 16.4%
- PT [3]: 12.8 s
- Plat [3]: 113 x10_4/uL
- RBC [3]: 599.8 x10_4/ul
- Ret [3]: 8%
- WBC [3]: 80.6 x10_2/uL
- APTT (100 mg/kg, 3 h, dose level Low): 16.1 s
- Eos (100 mg/kg, 3 h, dose level Low): 1.2%
- Fbg (100 mg/kg, 3 h, dose level Low): 227.8 mg/dL
- Hb (100 mg/kg, 3 h, dose level Low): 13.4 g/dL
- Ht (100 mg/kg, 3 h, dose level Low): 40.5%
- Lym (100 mg/kg, 3 h, dose level Low): 75.6%
- MCH (100 mg/kg, 3 h, dose level Low): 21.4 pg
- MCHC (100 mg/kg, 3 h, dose level Low): 33%
- MCV (100 mg/kg, 3 h, dose level Low): 64.7 fL
- Mono (100 mg/kg, 3 h, dose level Low): 6.8%
- PT (100 mg/kg, 3 h, dose level Low): 11.9 s
- Plat (100 mg/kg, 3 h, dose level Low): 124.7 x10_4/uL
- RBC (100 mg/kg, 3 h, dose level Low): 625.4 x10_4/ul
- Ret (100 mg/kg, 3 h, dose level Low): 7.7%
- WBC (100 mg/kg, 3 h, dose level Low): 78.5 x10_2/uL
- KIDNEY_L [3]: 1 g
- KIDNEY_R [3]: 1 g
- KIDNEY_TOTAL [3]: 2 g
- KIDNEY_L (100 mg/kg, 3 h, dose level Low): 0.9 g
- KIDNEY_TOTAL (100 mg/kg, 3 h, dose level Low): 1.9 g
- LIVER [3]: 10 g
- LIVER (100 mg/kg, 3 h, dose level Low): 8.6 g
- A/G [3]: 1.6
- ALP [3]: 909.6 IU/L
- ALT [3]: 38 IU/L
- AST [3]: 69.8 IU/L
- BUN [3]: 12 mg/dL
- CRE [3]: 0.4 mg/dL
- Ca [3]: 10.7 mg/dL
- Cl [3]: 101.6 meq/L
- DBIL [3]: 0.068 mg/dL
- GLC [3]: 183.2 mg/dL
- IP [3]: 9.2 mg/dL
- K [3]: 4 meq/L
- LDH [3]: 229.4 IU/L
- Na [3]: 140.4 meq/L
- PL [3]: 137.6 mg/dL
- RALB [3]: 3.4 g/dL
- TBIL [3]: 0.1 mg/dL
- TC [3]: 77.2 mg/dL
- TG [3]: 66.2 mg/dL
- TP [3]: 5.5 g/dL
- gamma-GTP [3]: 0.8 IU/L
- A/G (100 mg/kg, 3 h, dose level Low): 2.4
- ALP (100 mg/kg, 3 h, dose level Low): 1349.8 IU/L
- ALT (100 mg/kg, 3 h, dose level Low): 39.2 IU/L
- AST (100 mg/kg, 3 h, dose level Low): 64.6 IU/L
- BUN (100 mg/kg, 3 h, dose level Low): 11.2 mg/dL
- CRE (100 mg/kg, 3 h, dose level Low): 0.3 mg/dL
- Ca (100 mg/kg, 3 h, dose level Low): 11.1 mg/dL
- Cl (100 mg/kg, 3 h, dose level Low): 104.2 meq/L
- DBIL (100 mg/kg, 3 h, dose level Low): 0.006 mg/dL
- GLC (100 mg/kg, 3 h, dose level Low): 187.6 mg/dL
- IP (100 mg/kg, 3 h, dose level Low): 9.6 mg/dL
- K (100 mg/kg, 3 h, dose level Low): 4.3 meq/L
- LDH (100 mg/kg, 3 h, dose level Low): 91.8 IU/L
- Na (100 mg/kg, 3 h, dose level Low): 138.8 meq/L
- PL (100 mg/kg, 3 h, dose level Low): 144 mg/dL
- RALB (100 mg/kg, 3 h, dose level Low): 4 g/dL
- TBIL (100 mg/kg, 3 h, dose level Low): 0.032 mg/dL
- TC (100 mg/kg, 3 h, dose level Low): 91.2 mg/dL
- TG (100 mg/kg, 3 h, dose level Low): 63.2 mg/dL
- TP (100 mg/kg, 3 h, dose level Low): 5.7 g/dL
- gamma-GTP (100 mg/kg, 3 h, dose level Low): 1 IU/L
- TERMINAL_BW (100 mg/kg, 6 h, dose level High): 216.2 g
